Experiments:
Format in all cases: in vivo
Conditions in all cases: rating 0-100 (0 no damage, 100 complete death), 14 days after application
[1] = tested on: upland rice (Oryza sp., var. Tebonnet, RICE); assay: Post-emerge crop damage, greenhouse screen, RICE
Text: (§1) A standard greenhouse herbicide activity screening system was used to evaluate the herbicidal efficacy and crop safety of these test compounds. Seven broadleaf weed species including redroot pigweed (Amaranthus retroflexus, AMARE), velvetleaf (Abutilon theophrasti, ABUTH), sicklepod (Cassia obtusifolia, CASOB), ivyleaf morningglory (Ipomoea hederacea, IPOHE), lambsquarters (Chenopodium album, CHEAL), common ragweed (Ambrosia artemisiifolia L., AMBEL), and cocklebur (Xanthium strumarium, XANST) were used as test species. Four grass weed species including green foxtail (Setaria viridis, SETVI), barnyardgrass (Echinochloa crus-galli, ECHCG), johnsongrass (Sorghum halepense, SORHA), and large crabgrass (Digitaria sanguinalis, DIGSA) were also used. In addition, three crop species, field corn (Zea mays L., var. Dekalb 527, CORN), soybean (Glycine max L., var. Pella 86, SOY), and upland rice (Oryza sp., var. Tebonnet, RICE) were included.
(§2) All plants were grown in 10 cm square plastic pots which were filled with a sandy loam soil mix. For pre-emerge tests, seeds were planted one day prior to application of the test compounds. For post-emerge tests, seeds were planted 8-21 days prior to the test to allow emergence and good foliage development prior to application of the test substances. At the time of the post-emerge application, plants of all species were usually at the 2-3 leaf stage of development.
(§3) All test compounds were dissolved in acetone and applied to the test units in a volume of 187 l/ha. Test materials were applied at rates ranging from 15 g ai/ha to 1000 g ai/ha using a track sprayer equipped with a TJ8001 E even flow flat fan spray nozzle. Plants were arranged on a shelf so that the top of the canopy (post-emerge) or top of the soil surface (pre-emerge) was 40-45 cm below the nozzle. Pressurized air was used to force the test solution through the nozzle as it was mechanically advanced over the top of all test plants/pots. This application simulates a typical commercial field herbicide application.
(§4) In the post-emerge test, a commercial non-ionic surfactant was also included (0.25% v/v) to enhance wetting of the leaf surfaces of target plants. Immediately after application, test units of the pre-emerge applications were watered at the soil surface to incorporate the test materials.
(§5) At 14 days after application of the test materials, phytotoxicity ratings were recorded. A rating scale of 0-100 was used as previously described in Research Methods in Weed Science, 2nd edition, B. Truelove, Ed., Southern Weed Science Society, Auburn University, Auburn, Ala., 1977. Briefly, “0” corresponds to no damage and “100” corresponds to complete death of all plants in the test unit. This scale was used both to determine efficacy against weed species and damage to crop species. Herbicide activity data for various compounds of this invention, which are shown by compound No. in Tables 1-7, are shown in Tables 8 and 9.

[2] = tested on: ivyleaf morningglory (Ipomoea hederacea, IPOHE); assay: Post-emerge herbicidal activity, greenhouse screen, IPOHE
Text: as §1, §2, §3, §4, §5

[3] = tested on: velvetleaf (Abutilon theophrasti, ABUTH); assay: Post-emerge herbicidal activity, greenhouse screen, ABUTH
Text: as §1, §2, §3, §4, §5

[4] = tested on: green foxtail (Setaria viridis, SETVI); assay: Post-emerge herbicidal activity, greenhouse screen, SETVI
Text: as §1, §2, §3, §4, §5

[5] = tested on: johnsongrass (Sorghum halepense, SORHA); assay: Post-emerge herbicidal activity, greenhouse screen, SORHA
Text: as §1, §2, §3, §4, §5

[6] = tested on: johnsongrass (Sorghum halepense, SORHA); assay: Pre-emerge herbicidal activity, greenhouse screen, SORHA
Text: as §1, §2, §3, §4, §5

[7] = tested on: sicklepod (Cassia obtusifolia, CASOB); assay: Post-emerge herbicidal activity, greenhouse screen, CASOB
Text: as §1, §2, §3, §4, §5

[8] = tested on: redroot pigweed (Amaranthus retroflexus, AMARE); assay: Post-emerge herbicidal activity, greenhouse screen, AMARE
Text: as §1, §2, §3, §4, §5

[9] = tested on: field corn (Zea mays L., var. Dekalb 527, CORN); assay: Pre-emerge crop damage, greenhouse screen, CORN
Text: as §1, §2, §3, §4, §5

[10] = tested on: redroot pigweed (Amaranthus retroflexus, AMARE); assay: Pre-emerge herbicidal activity, greenhouse screen, AMARE
Text: as §1, §2, §3, §4, §5

[11] = tested on: lambsquarters (Chenopodium album, CHEAL); assay: Post-emerge herbicidal activity, greenhouse screen, CHEAL
Text: as §1, §2, §3, §4, §5

[12] = tested on: upland rice (Oryza sp., var. Tebonnet, RICE); assay: Pre-emerge crop damage, greenhouse screen, RICE
Text: as §1, §2, §3, §4, §5

[13] = tested on: ivyleaf morningglory (Ipomoea hederacea, IPOHE); assay: Pre-emerge herbicidal activity, greenhouse screen, IPOHE
Text: as §1, §2, §3, §4, §5

[14] = tested on: barnyardgrass (Echinochloa crus-galli, ECHCG); assay: Pre-emerge herbicidal activity, greenhouse screen, ECHCG
Text: as §1, §2, §3, §4, §5

[15] = tested on: sicklepod (Cassia obtusifolia, CASOB); assay: Pre-emerge herbicidal activity, greenhouse screen, CASOB
Text: as §1, §2, §3, §4, §5

[16] = tested on: soybean (Glycine max L., var. Pella 86, SOY); assay: Pre-emerge crop damage, greenhouse screen, SOY
Text: as §1, §2, §3, §4, §5

[17] = tested on: green foxtail (Setaria viridis, SETVI); assay: Pre-emerge herbicidal activity, greenhouse screen, SETVI
Text: as §1, §2, §3, §4, §5

[18] = tested on: large crabgrass (Digitaria sanguinalis, DIGSA); assay: Post-emerge herbicidal activity, greenhouse screen, DIGSA
Text: as §1, §2, §3, §4, §5

[19] = tested on: large crabgrass (Digitaria sanguinalis, DIGSA); assay: Pre-emerge herbicidal activity, greenhouse screen, DIGSA
Text: as §1, §2, §3, §4, §5

[20] = tested on: field corn (Zea mays L., var. Dekalb 527, CORN); assay: Post-emerge crop damage, greenhouse screen, CORN
Text: as §1, §2, §3, §4, §5

[21] = tested on: barnyardgrass (Echinochloa crus-galli, ECHCG); assay: Post-emerge herbicidal activity, greenhouse screen, ECHCG
Text: as §1, §2, §3, §4, §5

[22] = tested on: soybean (Glycine max L., var. Pella 86, SOY); assay: Post-emerge crop damage, greenhouse screen, SOY
Text: as §1, §2, §3, §4, §5

[23] = tested on: common ragweed (Ambrosia artemisiifolia L., AMBEL); assay: Post-emerge herbicidal activity, greenhouse screen, AMBEL
Text: as §1, §2, §3, §4, §5

[24] = tested on: common ragweed (Ambrosia artemisiifolia L., AMBEL); assay: Pre-emerge herbicidal activity, greenhouse screen, AMBEL
Text: as §1, §2, §3, §4, §5

[25] = tested on: velvetleaf (Abutilon theophrasti, ABUTH); assay: Pre-emerge herbicidal activity, greenhouse screen, ABUTH
Text: as §1, §2, §3, §4, §5

[26] = tested on: lambsquarters (Chenopodium album, CHEAL); assay: Pre-emerge herbicidal activity, greenhouse screen, CHEAL
Text: as §1, §2, §3, §4, §5

Cn1c(C(F)(F)F)cc(=O)n(-c2ccc(Cl)c3nc(C(C)(C)C)oc23)c1=S [Compound 1-4]
0: Post-emerge Herbicidal Activity DIGSA ([18]; 63 g ai/ha) | Post-emerge Herbicidal Activity CORN (crop damage) ([20]; 63 g ai/ha)
20: Post-emerge Herbicidal Activity SORHA ([5]; 63 g ai/ha) | Post-emerge Herbicidal Activity DIGSA ([18]; 250 g ai/ha)
10: Pre-emerge Herbicidal Activity SOY (crop damage) ([16]; 63 g ai/ha)
95: Post-emerge Herbicidal Activity IPOHE ([2]; 63 g ai/ha)
100: Post-emerge Herbicidal Activity IPOHE ([2]; 250 g ai/ha) | Post-emerge Herbicidal Activity ABUTH ([3]; 63 g ai/ha) | Post-emerge Herbicidal Activity ABUTH ([3]; 250 g ai/ha) | Post-emerge Herbicidal Activity SETVI ([4]; 250 g ai/ha) | Pre-emerge Herbicidal Activity SORHA ([6]; 63 g ai/ha) | Pre-emerge Herbicidal Activity SORHA ([6]; 250 g ai/ha) | Post-emerge Herbicidal Activity AMARE ([8]; 63 g ai/ha) | Post-emerge Herbicidal Activity AMARE ([8]; 250 g ai/ha) | Pre-emerge Herbicidal Activity AMARE ([10]; 63 g ai/ha) | Pre-emerge Herbicidal Activity AMARE ([10]; 250 g ai/ha) | Post-emerge Herbicidal Activity CHEAL ([11]; 63 g ai/ha) | Post-emerge Herbicidal Activity CHEAL ([11]; 250 g ai/ha) | Pre-emerge Herbicidal Activity IPOHE ([13]; 250 g ai/ha) | Pre-emerge Herbicidal Activity ECHCG ([14]; 63 g ai/ha) | Pre-emerge Herbicidal Activity ECHCG ([14]; 250 g ai/ha) | Pre-emerge Herbicidal Activity CASOB ([15]; 250 g ai/ha) | Pre-emerge Herbicidal Activity SETVI ([17]; 63 g ai/ha) | Pre-emerge Herbicidal Activity SETVI ([17]; 250 g ai/ha) | Pre-emerge Herbicidal Activity DIGSA ([19]; 63 g ai/ha) | Pre-emerge Herbicidal Activity DIGSA ([19]; 250 g ai/ha) | Post-emerge Herbicidal Activity ECHCG ([21]; 250 g ai/ha) | Pre-emerge Herbicidal Activity AMBEL ([24]; 250 g ai/ha) | Pre-emerge Herbicidal Activity ABUTH ([25]; 63 g ai/ha) | Pre-emerge Herbicidal Activity ABUTH ([25]; 250 g ai/ha) | Pre-emerge Herbicidal Activity CHEAL ([26]; 63 g ai/ha) | Pre-emerge Herbicidal Activity CHEAL ([26]; 250 g ai/ha)
85: Pre-emerge Herbicidal Activity CORN (crop damage) ([9]; 250 g ai/ha)
99: Post-emerge Herbicidal Activity CASOB ([7]; 250 g ai/ha) | Pre-emerge Herbicidal Activity IPOHE ([13]; 63 g ai/ha)
80: Pre-emerge Herbicidal Activity SOY (crop damage) ([16]; 250 g ai/ha) | Pre-emerge Herbicidal Activity AMBEL ([24]; 63 g ai/ha)
30: Post-emerge Herbicidal Activity SORHA ([5]; 250 g ai/ha) | Post-emerge Herbicidal Activity CORN (crop damage) ([20]; 250 g ai/ha)
50: Post-emerge Herbicidal Activity SETVI ([4]; 63 g ai/ha) | Post-emerge Herbicidal Activity SOY (crop damage) ([22]; 63 g ai/ha) | Post-emerge Herbicidal Activity SOY (crop damage) ([22]; 250 g ai/ha)
65: Post-emerge Herbicidal Activity RICE (crop damage) ([1]; 250 g ai/ha)
15: Pre-emerge Herbicidal Activity CORN (crop damage) ([9]; 63 g ai/ha)
70: Pre-emerge Herbicidal Activity CASOB ([15]; 63 g ai/ha)
60: Post-emerge Herbicidal Activity RICE (crop damage) ([1]; 63 g ai/ha) | Post-emerge Herbicidal Activity CASOB ([7]; 63 g ai/ha) | Pre-emerge Herbicidal Activity RICE (crop damage) ([12]; 63 g ai/ha)
90: Pre-emerge Herbicidal Activity RICE (crop damage) ([12]; 250 g ai/ha) | Post-emerge Herbicidal Activity ECHCG ([21]; 63 g ai/ha) | Post-emerge Herbicidal Activity AMBEL ([23]; 63 g ai/ha) | Post-emerge Herbicidal Activity AMBEL ([23]; 250 g ai/ha)

Cn1c(C(F)(F)F)cc(=O)n(-c2c(F)cc(Cl)c3nc(C(C)(C)C)oc23)c1=S [Compound 1-3, 3-[2-t-butyl-4-chloro-6-fluoro-1,3-benzoxazol-7-yl]-1-methyl-2-thioxo-6-(trifluoromethyl)-2,3-dihydropyrimidin-4(1H)-one]
85: Post-emerge Herbicidal Activity SORHA ([5]; 250 g ai/ha)
50: Post-emerge Herbicidal Activity DIGSA ([18]; 63 g ai/ha)
70: Post-emerge Herbicidal Activity CASOB ([7]; 63 g ai/ha)
99: Post-emerge Herbicidal Activity SETVI ([4]; 63 g ai/ha) | Post-emerge Herbicidal Activity AMBEL ([23]; 63 g ai/ha) | Pre-emerge Herbicidal Activity AMBEL ([24]; 63 g ai/ha)
100: Post-emerge Herbicidal Activity IPOHE ([2]; 63 g ai/ha) | Post-emerge Herbicidal Activity IPOHE ([2]; 250 g ai/ha) | Post-emerge Herbicidal Activity ABUTH ([3]; 63 g ai/ha) | Post-emerge Herbicidal Activity ABUTH ([3]; 250 g ai/ha) | Post-emerge Herbicidal Activity SETVI ([4]; 250 g ai/ha) | Pre-emerge Herbicidal Activity SORHA ([6]; 63 g ai/ha) | Pre-emerge Herbicidal Activity SORHA ([6]; 250 g ai/ha) | Post-emerge Herbicidal Activity CASOB ([7]; 250 g ai/ha) | Post-emerge Herbicidal Activity AMARE ([8]; 63 g ai/ha) | Post-emerge Herbicidal Activity AMARE ([8]; 250 g ai/ha) | Pre-emerge Herbicidal Activity AMARE ([10]; 63 g ai/ha) | Pre-emerge Herbicidal Activity AMARE ([10]; 250 g ai/ha) | Post-emerge Herbicidal Activity CHEAL ([11]; 63 g ai/ha) | Post-emerge Herbicidal Activity CHEAL ([11]; 250 g ai/ha) | Pre-emerge Herbicidal Activity IPOHE ([13]; 250 g ai/ha) | Pre-emerge Herbicidal Activity ECHCG ([14]; 63 g ai/ha) | Pre-emerge Herbicidal Activity ECHCG ([14]; 250 g ai/ha) | Pre-emerge Herbicidal Activity CASOB ([15]; 250 g ai/ha) | Pre-emerge Herbicidal Activity SETVI ([17]; 63 g ai/ha) | Pre-emerge Herbicidal Activity SETVI ([17]; 250 g ai/ha) | Pre-emerge Herbicidal Activity DIGSA ([19]; 63 g ai/ha) | Pre-emerge Herbicidal Activity DIGSA ([19]; 250 g ai/ha) | Post-emerge Herbicidal Activity ECHCG ([21]; 63 g ai/ha) | Post-emerge Herbicidal Activity ECHCG ([21]; 250 g ai/ha) | Post-emerge Herbicidal Activity AMBEL ([23]; 250 g ai/ha) | Pre-emerge Herbicidal Activity AMBEL ([24]; 250 g ai/ha) | Pre-emerge Herbicidal Activity ABUTH ([25]; 63 g ai/ha) | Pre-emerge Herbicidal Activity ABUTH ([25]; 250 g ai/ha) | Pre-emerge Herbicidal Activity CHEAL ([26]; 63 g ai/ha) | Pre-emerge Herbicidal Activity CHEAL ([26]; 250 g ai/ha)
65: Post-emerge Herbicidal Activity SORHA ([5]; 63 g ai/ha) | Post-emerge Herbicidal Activity DIGSA ([18]; 250 g ai/ha)
95: Pre-emerge Herbicidal Activity IPOHE ([13]; 63 g ai/ha) | Pre-emerge Herbicidal Activity CASOB ([15]; 63 g ai/ha)
